{"source": "patent EP4545067A1", "about": "“HIGHY DOSED DERMALLY […] PREPARATION HAVING AN INCREASED DRUGLOAD IN THE TARGET CO[…] IMPROVED TREATMENT OF ECTOPARASITE INFESTATION” (Infectopharm Arzneimittel und Consilium GmbH, priority 2023, dated 2025)", "origin": "cited, not measured here", "conditions": "bei 20 °C", "data": [{"smiles": "CC1(C)C(C=C(Cl)Cl)C1C(=O)OCc1cccc(Oc2ccccc2)c1", "note": "(stereo not shown) [Permethrin, 3-(2,2-Dichlorethenyl)-2,2-dimethylcyclopropancarboxylsäure-(3-phenoxyphenyl)methylester]", "values": [{"measurement": "Löslichkeit in Wasser", "value": "0,2 mg·l^-1"}]}]}
